Tests used:
[1] = test system: EPAS1 protein; test: Western blotting of EPAS1 expression in CD4+ T cells treated with EPAS1 inhibitor; assay type: cell-based; settings: human CD4+ T cells (patients with atopic dermatitis and healthy controls), inhibitor at 30 μM, FIG. 44
From the text: (§1) Human peripheral blood samples were collected from atopic dermatitis patients and healthy volunteers in compliance with Institutional Review Board protocols of the facility. Human peripheral blood mononuclear cells (PBMC) were separated by Percoll (GE Healthcare) gradient centrifugation. The CD4^+ T cells were isolated from PBMCs by magnetic sorting by using Dynabeads human CD4 followed by treatment with DETACHaBEAD human CD4 (Life Technologies).
(§2) After being suspended in complete RPMI 1640 medium, CD4^+ T cells (3×10^5 cells/well) were stimulated in a 24-well plate coated with anti-human CD3ε antibody (model “Hit3a”, Tonbo Biosciences) for 6 hours. In some experiments, the CD4^+ T cells were treated with EPAS1 inhibitors, FM19G11 or HIFVII at 30 μM (both from Calbiochem).
Cells were lysed in 20 mM Tris-HCl buffer (pH 7.5) containing 1% Triton X-100, 150 mM NaCl, 1 mM EDTA, 1 mM EGTA, 2.5 mM sodium pyrophosphate, 1 mM β-glycerophosphate, 1 mM Na3VO4, and complete protease inhibitors (Roche).
After centrifugation, the supernatants were mixed with an equal volume of 2× sample buffer (125 mM Tris-HCl, 0.01% bromophenacyl bromide, 4% SDS, 20% glycerol, and […] dithiothreitol). Samples were boiled for 5 minutes and analyzed by inmmunoblotting.
The following antibodies were used. […]

[2] = test system: IL-31 gene; test: IL-31 gene expression in CD4+ T cells from patients with atopic dermatitis following TCR stimulation (real-time PCR); assay type: cell-based, human; settings: anti-CD3ε stimulation 6 hours, inhibitor at 30 μM, FIG. 45 (a), (c)
From the text: as §1, §2
(§3) Total RNA was extracted using ISOGEN (trade name, Nippon Gene). After treatment with RNase-free DNase I (Life Technologies), RNA samples were reverse-transcribed with oligo (dT) primers (Life Technologies) and SuperScript III reverse transcriptase (Life Technologies) for amplification by PCR.
(§4) Real-time PCR was performed using ABI PRISM 7,000 Sequence Detection System (trade name, Applied Biosystems) and SYBR Green PCR Master Mix (Applied Biosystems).
(§5) The expression levels of human and mouse target genes were normalized based on expression levels of GAPDH and HPRT. […]

[3] = test system: IL-2 gene; test: IL-2 gene expression in CD4+ T cells from patients with atopic dermatitis following TCR stimulation (real-time PCR); assay type: cell-based, human; settings: anti-CD3ε stimulation 6 hours, inhibitor at 30 μM, FIG. 45 (b)
From the text: as §1, §2, §3, §4, §5

## Cc1ccc(C(=O)COC(=O)c2cccc(NC(=O)c3ccc([N+](=O)[O-])cc3[N+](=O)[O-])c2)cc1 [FM19G11, 3-[(2,4-dinitrobenzoyl)amino]-benzoic acid 2-(4-methylphenyl)-2-oxoethyl ester]
[1]
  expression level of EPAS1 protein: markedly decreased
[2]
  expression of the IL-31 gene following TCR stimulation: markedly suppressed
[3]
  expression levels of the IL-2 gene following TCR stimulation: comparable

Source: patent US11213020B2, “Atopic dermatitis model non-human animal and use thereof” (KYUSHU UNIVERSITY, NATIONAL UNIVERSITY CORPORATION, priority 2016, dated 2022)
